Assays:
[1] = Solubility of the peptide salt in water; type: physicochemical; details: pH 7.0, 25° C.
Text: As used herein, a "gelable peptide salt" is a peptide salt which will form a gel upon contact with bodily fluids. Whether a peptide salt is "gelable," and will have the desired biological properties, can be determined by testing the peptide salt in the in vitro and in vivo assays described below. The term "peptide" means a natural or synthetic molecule comprising two or more amino acids linked by the carboxyl group of one amino acid and the amino group of another. Thus, the term includes both polypeptides and proteins. A "soluble" peptide salt is one having a solubility of 0.1 mg/ml, and preferably 1.0 mg/ml, in water at a pH of 7.0 and a temperature of 25° C.
A solution of the peptide composition is undesirable, because such a solution, once injected, will disperse and not form the sustained-release gel of the invention. Thus, the amount of water is carefully selected to be less than that required to dissolve a specific amount of the peptide composition For example, at 25° C., pH 7.0, 1.0 ml or less of water is required when mixed with 26 mg of the acetate salt of SOMATULINE™ to avoid the formation of a solution. By using an amount of water that is less than 50 percent, and preferably less than 20 or 10 percent, of the amount of water required to dissolve a peptide salt, a semisolid or paste-like suspension, rather than a solution, is ensured.

[2] = In vivo blood level release profile in dogs (plasma RIA); parameters: species or system dog; details: gels at sufficient dosages
Procedure: Once a particular peptide salt is found to gel in any of the in vitro assays described above, an in vivo assay can be used to determine the suitability of that peptide salt for therapeutic use in animals or humans. A blood level release profile for a particular peptide salt can be determined by injecting the peptide salt into an animal, e.g., a Sprague Dawley rat or dog, and testing blood samples taken at specific time intervals, e.g., hourly intervals over 1 to 5 days, or 12 or 24 hour intervals over 5 to 45 days, for the concentration of the peptide. The suitability of a particular peptide gel, or a peptide/carrier gel, for therapeutic delivery of the peptide can thus be determined.
Specifically, animals are anaesthetized with pentobarbital (60 mg/kg i.p. for rats), and a jugular vein is cannulated for blood sampling. A test peptide semisolid suspension or solid composition (or standard solution for comparison purposes), e.g., of SOMATULINE™, is injected subcutaneously at a specific dosage, e.g., 1.0, 3.0, or 6.0 mg/kg of SOMATULINE™. […] The amount of peptide in the plasma samples is determined by a standard radioimmunoassay (RIA) technique that allows a direct measurement without extraction of the peptide from the rat plasma. […]

## CC(C)[C@@H]1NC(=O)[C@H](CCCCN)NC(=O)[C@@H](Cc2c[nH]c3ccccc23)NC(=O)[C@H](Cc2ccc(O)cc2)NC(=O)[C@@H](NC(=O)[C@H](N)Cc2ccc3ccccc3c2)CSSC[C@@H](C(=O)N[C@H](C(N)=O)[C@@H](C)O)NC1=O [SOMATULINE™]
[1]
  solubility: 26.0 mg/mL
[2]
  duration of sustained release of at least 1.0 ng/ml of the peptide in the blood: over one month

— patent US5595760A, “Sustained release of peptides from pharmaceutical compositions” (Delab, priority 1995, dated 1997)
